Drawing on ChEMBL document CHEMBL1153896, “Antiproliferative cardenolide glycosides of Elaeodendron alluaudianum from the Madagascar Rainforest” (Bioorg Med Chem, 2009), this text covers IC50 for four molecules.

Common to all, as to type: functional, cell-based
One test has as its system A2780. Put plainly: Antiproliferative activity against human A2780 cells after 96 hrs by celltiter-glo luminescent cell viability assay. The following applies: A2780, 96 h. For orientation: ATP-based viability assays read luminescence as a measure of living cells.
A further test has as its system U-937. Kind of test: Antiproliferative activity against human U937 cells after 96 hrs by celltiter-glo luminescent cell viability assay. The following applies: U-937, 96 h.
The test system of another test is KB. Kind of test: Antiproliferative activity against human KB cells.
The nature of test [1]: Antiproliferative activity against HSG cells. The following applies: Homo sapiens.

For `C[C@H]1O[C@@H](O[C@H]2CC[C@]3(CO)[C@H]4[C@H](O)C[C@]5(C)[C@@H](C6=CC(=O)OC6)CC[C@]5(O)[C@@H]4CC[C@]3(O)C2)[C@H](O)[C@H](O)[C@@H]1O[C@@H]1O[C@H](CO)[C@@H](O)[C@@H](O)[C@H]1O` [ELAEODENDROSIDE V], the IC50 in the test on A2780 is 120 nM; in the test on U-937 it was 150 nM.

Molecule `C[C@H]1O[C@@H](O[C@H]2CC[C@]3(C=O)[C@H]4[C@H](O)C[C@]5(C)[C@@H](C6=CC(=O)OC6)CC[C@]5(O)[C@@H]4CC[C@]3(O)C2)[C@H](O)[C@H](O)[C@H]1O` gave an IC50 in the test on KB of 74 nM.

For `C[C@H]1O[C@@H](O[C@H]2[C@H](O)[C@H](O)[C@H](O[C@H]3CC[C@]4(C=O)[C@H]5[C@H](O)C[C@]6(C)[C@@H](C7=CC(=O)OC7)CC[C@]6(O)[C@@H]5CC[C@]4(O)C3)O[C@@H]2C)[C@@H](O)[C@@H](O)[C@@H]1O`, in test [1], the IC50 amounted to 49 nM.

Turning to `C[C@H]1O[C@@H](O[C@H]2CC[C@]3(C=O)[C@H]4[C@H](O)C[C@]5(C)[C@@H](C6=CC(=O)OC6)CC[C@]5(O)[C@@H]4CC[C@]3(O)C2)[C@H](O)[C@H](O)[C@@H]1O[C@@H]1O[C@H](CO)[C@@H](O)[C@@H](O)[C@H]1O` [ELAEODENDROSIDE W], the 50% inhibitory concentration (IC50) in the test with A2780 came out at 70 nM; in the test on U-937 it was 80 nM.

By IC50 is commonly meant the concentration needed to halve the response being measured. A lower IC50 goes with greater potency in that assay.
